Assay results as given in patent US5672715A, “Herbicidal substituted 3-aryl-pyrazoles” (Monsanto Company, priority 1995, dated 1997).

Experiments:
Type in all cases: in vivo
Barnyardgrass [1] = assay: pre-emergence herbicide test; conditions: Echinochloa crus-galli, pre-emergence, 0.25 lb/A; read-out: % plant inhibition
Procedure, shortened: (§1)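 Herbicidal effect was assessed as percent inhibition about 14 days after sowing. A known amount of compound was added to the covering topsoil, and the pans were subirrigated in a greenhouse.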

Bedstraw Catchweed [2] = assay: pre-emergence herbicide test; conditions: 0.25 lb/A; for inhibition at 280.212 g/ha: Galium aparine, pre-emergence, read-out: % plant inhibition
Procedure, shortened: as §1

Birdseye Speedwell [3] = assay: pre-emergence herbicide test; conditions: pre-emergence, 0.25 lb/A; read-out: % plant inhibition
Procedure, shortened: as §1

Blackgrass [4] = assay: pre-emergence herbicide test; conditions: 0.25 lb/A; for inhibition at 280.212 g/ha: Alopecurus myosuroides, pre-emergence, read-out: % plant inhibition
Procedure, shortened: as §1

Cocklebur [5] = assay: pre-emergence herbicide test; conditions: 0.25 lb/A; for inhibition at 280.212 g/ha: Xanthium strumarium, pre-emergence, read-out: % plant inhibition
Procedure, shortened: as §1

Common Chickweed [6] = assay: pre-emergence herbicide test; conditions: pre-emergence, 0.25 lb/A; read-out: % plant inhibition
Procedure, shortened: as §1

Corn [7] = assay: pre-emergence herbicide test; conditions: 0.25 lb/A; for inhibition at 280.212 g/ha: Zea mays, pre-emergence, read-out: % plant inhibition
Procedure, shortened: as §1

Downy Brome [8] = assay: pre-emergence herbicide test; conditions: Bromus tectorum, pre-emergence, 0.25 lb/A; read-out: % plant inhibition
Procedure, shortened: as §1

Giant Foxtail [9] = assay: pre-emergence herbicide test; conditions: Setaria faberi, pre-emergence, 0.25 lb/A; read-out: % plant inhibition
Procedure, shortened: as §1

Green Foxtail [10] = assay: pre-emergence herbicide test; conditions: Setaria viridis, pre-emergence; 0.25 lb/A; read-out: % plant inhibition
Procedure, shortened: as §1

Morning Glory [11] = assay: pre-emergence herbicide test; conditions: Ipomoea, pre-emergence, 0.25 lb/A; read-out: % plant inhibition
Procedure, shortened: as §1

Rape [12] = assay: pre-emergence herbicide test; conditions: pre-emergence, 0.25 lb/A; read-out: % plant inhibition
Procedure, shortened: as §1

Seedling Johnsongrass [13] = assay: pre-emergence herbicide test; conditions: Sorghum halepense, pre-emergence, 0.25 lb/A; read-out: % plant inhibition
Procedure, shortened: as §1

Soybean [14] = assay: pre-emergence herbicide test; conditions: 0.25 lb/A; for inhibition at 280.212 g/ha: Glycine max, pre-emergence, read-out: % plant inhibition
Procedure, shortened: as §1

Velvetleaf [15] = assay: pre-emergence herbicide test; conditions: Abutilon theophrasti, pre-emergence, 0.25 lb/A; read-out: % plant inhibition
Procedure, shortened: as §1

Wheat [16] = assay: pre-emergence herbicide test; conditions: Triticum aestivum, pre-emergence, 0.25 lb/A; read-out: % plant inhibition
Procedure, shortened: as §1

Wild Oats [17] = assay: pre-emergence herbicide test; conditions: 0.25 lb/A; for inhibition at 280.212 g/ha: Avena fatua, pre-emergence, read-out: % plant inhibition
Procedure, shortened: as §1

Barnyardgrass [18] = assay: post-emergence herbicide test; conditions: Echinochloa crus-galli, post-emergence, 0.25 lb/A; read-out: % plant inhibition
Procedure, shortened: (§2)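 Each pan is moved to a spraying chamber when plants are two to three weeks old and sprayed by atomizer at 10 psig, delivering 1870 L/Ha containing about 0.4% by volume emulsifier. Greenhouse-grown from seed; percent inhibition scored.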

Bedstraw Catchweed [19] = assay: post-emergence herbicide test; conditions: 0.25 lb/A; for inhibition at 280.212 g/ha: Galium aparine, post-emergence, read-out: % plant inhibition
Procedure, shortened: as §2

Birdseye Speedwell [20] = assay: post-emergence herbicide test; conditions: post-emergence, 0.25 lb/A; read-out: % plant inhibition
Procedure, shortened: as §2

Blackgrass [21] = assay: post-emergence herbicide test; conditions: 0.25 lb/A; for inhibition at 280.212 g/ha: Alopecurus myosuroides, post-emergence, read-out: % plant inhibition
Procedure, shortened: as §2

Cocklebur [22] = assay: post-emergence herbicide test; conditions: Xanthium strumarium, post-emergence, 0.25 lb/A; read-out: % plant inhibition
Procedure, shortened: as §2

Common Chickweed [23] = assay: post-emergence herbicide test; conditions: post-emergence, 0.25 lb/A; read-out: % plant inhibition
Procedure, shortened: as §2

Corn [24] = assay: post-emergence herbicide test; conditions: 0.25 lb/A; for inhibition at 280.212 g/ha: Zea mays, post-emergence, read-out: % plant inhibition
Procedure, shortened: as §2

Downy Brome [25] = assay: post-emergence herbicide test; conditions: 0.25 lb/A; for inhibition at 280.212 g/ha: Bromus tectorum, post-emergence, read-out: % plant inhibition
Procedure, shortened: as §2

Giant Foxtail [26] = assay: post-emergence herbicide test; conditions: 0.25 lb/A; for inhibition at 280.212 g/ha: Setaria faberi, post-emergence, read-out: % plant inhibition
Procedure, shortened: as §2

Green Foxtail [27] = assay: post-emergence herbicide test; conditions: Setaria viridis, post-emergence, 0.25 lb/A; read-out: % plant inhibition
Procedure, shortened: as §2

Morning Glory [28] = assay: post-emergence herbicide test; conditions: 0.25 lb/A; for inhibition at 280.212 g/ha: Ipomoea, post-emergence, read-out: % plant inhibition
Procedure, shortened: as §2

Rape [29] = assay: post-emergence herbicide test; conditions: post-emergence, 0.25 lb/A; read-out: % plant inhibition
Procedure, shortened: as §2

Seedling Johnsongrass [30] = assay: post-emergence herbicide test; conditions: Sorghum halepense, post-emergence, 0.25 lb/A; read-out: % plant inhibition
Procedure, shortened: as §2

Soybean [31] = assay: post-emergence herbicide test; conditions: 0.25 lb/A; for inhibition at 280.212 g/ha: Glycine max, post-emergence, read-out: % plant inhibition
Procedure, shortened: as §2

Velvetleaf [32] = assay: post-emergence herbicide test; conditions: Abutilon theophrasti, post-emergence, 0.25 lb/A; read-out: % plant inhibition
Procedure, shortened: as §2

Wheat [33] = assay: post-emergence herbicide test; conditions: Triticum aestivum, post-emergence, 0.25 lb/A; read-out: % plant inhibition
Procedure, shortened: as §2

Wild Oats [34] = assay: post-emergence herbicide test; conditions: 0.25 lb/A; for inhibition at 280.212 g/ha: Avena fatua, post-emergence, read-out: % plant inhibition
Procedure, shortened: as §2

| SMILES | inhibition at 280.212 g/ha (Barnyardgrass [1]) | inhibition at 280.212 g/ha (Birdseye Speedwell [3]) | inhibition at 280.212 g/ha (Common Chickweed [6]) | inhibition at 280.212 g/ha (Downy Brome [8]) | inhibition at 280.212 g/ha (Giant Foxtail [9]) | inhibition at 280.212 g/ha (Green Foxtail [10]) | inhibition at 280.212 g/ha (Morning Glory [11]) | inhibition at 280.212 g/ha (Rape [12]) | inhibition at 280.212 g/ha (Seedling Johnsongrass [13]) | inhibition at 280.212 g/ha (Velvetleaf [15]) | inhibition at 280.212 g/ha (Wheat [16]) | inhibition at 280.212 g/ha (Barnyardgrass [18]) | inhibition at 280.212 g/ha (Birdseye Speedwell [20]) | inhibition at 280.212 g/ha (Cocklebur [22]) | inhibition at 280.212 g/ha (Common Chickweed [23]) | inhibition at 280.212 g/ha (Green Foxtail [27]) | inhibition at 280.212 g/ha (Rape [29]) | inhibition at 280.212 g/ha (Seedling Johnsongrass [30]) | inhibition at 280.212 g/ha (Velvetleaf [32]) | inhibition at 280.212 g/ha (Wheat [33]) | other results |
| --- | --- | --- | --- | --- | --- | --- | --- | --- | --- | --- | --- | --- | --- | --- | --- | --- | --- | --- | --- | --- | --- |
| CCCCCOC(=O)c1cc(-c2nn(C)c(C(F)(F)F)c2C)c(F)cc1Cl [Compound 48] | 100% | 100% | 95% | 90% | 99% | 100% | 99% | 5% | 98% | 95% | 0% | 60% | 100% | 90% | 65% | 98% | 60% | 85% | 100% | 16% | inhibition at 280.212 g/ha (Bedstraw Catchweed [2]): 45%; inhibition at 280.212 g/ha (Blackgrass [4]): 60%; inhibition at 280.212 g/ha (Cocklebur [5]): 45%; inhibition at 280.212 g/ha (Corn [7]): 35%; inhibition at 280.212 g/ha (Soybean [14]): 0%; inhibition at 280.212 g/ha (Wild Oats [17]): 45%; inhibition at 280.212 g/ha (Bedstraw Catchweed [19]): 80%; inhibition at 280.212 g/ha (Blackgrass [21]): 70%; inhibition at 280.212 g/ha (Corn [24]): 7%; inhibition at 280.212 g/ha (Downy Brome [25]): 65%; inhibition at 280.212 g/ha (Giant Foxtail [26]): 99%; inhibition at 280.212 g/ha (Morning Glory [28]): 75%; inhibition at 280.212 g/ha (Soybean [31]): 70%; inhibition at 280.212 g/ha (Wild Oats [34]): 75% |
| CCCCCCCCCCCCOC(=O)c1cc(-c2nn(C)c(C(F)(F)F)c2C)c(F)cc1Cl [Compound 49] | 75% | 55% | 5% | 5% | 10% | 60% | 40% | 0% | 45% | 0% | 0% | 0% | 80% | 50% | 10% | 60% | 20% | 5% | 10% | 10% | inhibition at 280.212 g/ha (Bedstraw Catchweed [2]): 5%; inhibition at 280.212 g/ha (Blackgrass [4]): 5%; inhibition at 280.212 g/ha (Cocklebur [5]): 0%; inhibition at 280.212 g/ha (Corn [7]): 0%; inhibition at 280.212 g/ha (Soybean [14]): 0%; inhibition at 280.212 g/ha (Wild Oats [17]): 5%; inhibition at 280.212 g/ha (Bedstraw Catchweed [19]): 35%; inhibition at 280.212 g/ha (Blackgrass [21]): 20%; inhibition at 280.212 g/ha (Corn [24]): 5%; inhibition at 280.212 g/ha (Downy Brome [25]): 20%; inhibition at 280.212 g/ha (Giant Foxtail [26]): 0%; inhibition at 280.212 g/ha (Morning Glory [28]): 5%; inhibition at 280.212 g/ha (Soybean [31]): 5%; inhibition at 280.212 g/ha (Wild Oats [34]): 20% |
| Cc1c(-c2cc(C(=O)OCSC#N)c(Cl)cc2F)nn(C)c1C(F)(F)F [Compound 50] | 25% | 35% | 35% | 5% | 0% | 10% | 0% | 0% | 0% | 40% | 0% | 5% | 75% | 60% | 60% | 25% | 15% | 0% | 90% | 10% | inhibition at 280.212 g/ha (Bedstraw Catchweed [2]): 25%; inhibition at 280.212 g/ha (Blackgrass [4]): 5%; inhibition at 280.212 g/ha (Cocklebur [5]): 0%; inhibition at 280.212 g/ha (Corn [7]): 0%; inhibition at 280.212 g/ha (Soybean [14]): 0%; inhibition at 280.212 g/ha (Wild Oats [17]): 0%; inhibition at 280.212 g/ha (Bedstraw Catchweed [19]): 35%; inhibition at 280.212 g/ha (Blackgrass [21]): 5%; inhibition at 280.212 g/ha (Corn [24]): 5%; inhibition at 280.212 g/ha (Downy Brome [25]): 10%; inhibition at 280.212 g/ha (Giant Foxtail [26]): 0%; inhibition at 280.212 g/ha (Morning Glory [28]): 35%; inhibition at 280.212 g/ha (Soybean [31]): 7%; inhibition at 280.212 g/ha (Wild Oats [34]): 10% |
| Cc1c(-c2cc(C(=O)OCCC(C)C)c(Cl)cc2F)nn(C)c1C(F)(F)F [Compound 51] | 50% | 90% | 70% | 35% | 90% | 100% | 15% | 5% | 80% | 90% | 0% | 60% | 98% | 85% | 75% | 80% | 20% | 85% | 100% | 12% | % plant inhibition (Bedstraw Catchweed [2]): 55%; % plant inhibition (Blackgrass [4]): 20%; % plant inhibition (Cocklebur [5]): 0%; % plant inhibition (Corn [7]): 8%; % plant inhibition (Soybean [14]): 3%; % plant inhibition (Wild Oats [17]): 15%; % plant inhibition (Bedstraw Catchweed [19]): 40%; % plant inhibition (Blackgrass [21]): 45%; % plant inhibition (Corn [24]): 7%; % plant inhibition (Downy Brome [25]): 45%; % plant inhibition (Giant Foxtail [26]): 85%; % plant inhibition (Morning Glory [28]): 35%; % plant inhibition (Soybean [31]): 65%; % plant inhibition (Wild Oats [34]): 55% |
| COCC(C)OC(=O)c1cc(-c2nn(C)c(C(F)(F)F)c2C)c(F)cc1Cl (centres unmarked) [Compound 52] | 100% | 95% | 95% | 100% | 100% | 100% | 70% | 60% | 100% | 100% | 0% | 99% | 100% | 100% | 100% | 98% | 100% | 99% | 100% | 25% | inhibition at 280.212 g/ha (Bedstraw Catchweed [2]): 90%; inhibition at 280.212 g/ha (Blackgrass [4]): 100%; inhibition at 280.212 g/ha (Cocklebur [5]): 65%; inhibition at 280.212 g/ha (Corn [7]): 75%; inhibition at 280.212 g/ha (Soybean [14]): 5%; inhibition at 280.212 g/ha (Wild Oats [17]): 85%; inhibition at 280.212 g/ha (Bedstraw Catchweed [19]): 100%; inhibition at 280.212 g/ha (Blackgrass [21]): 95%; inhibition at 280.212 g/ha (Corn [24]): 15%; inhibition at 280.212 g/ha (Downy Brome [25]): 100%; inhibition at 280.212 g/ha (Giant Foxtail [26]): 100%; inhibition at 280.212 g/ha (Morning Glory [28]): 99%; inhibition at 280.212 g/ha (Soybean [31]): 95%; inhibition at 280.212 g/ha (Wild Oats [34]): 95% |
